According to ChEMBL document CHEMBL2331181, “Synthesis and in vitro cytotoxic activity evaluation of novel heterocycle bridged carbothioamide type isosteviol derivatives as antitumor agents” (Bioorg Med Chem Lett, 2013):

These molecules were tested on Raji (assay: Cytotoxicity against human Raji cells after 48 hrs by MTT assay). Settings: not given.
Format: functional, cell-based
Molecule `CCOC(=O)[C@]1(C)CCC[C@@]2(C)[C@@H]3CC[C@@]4(C)C[C@]3(CC[C@@H]21)[C@@H]1CON(C(=S)Nc2ccc(C)cc2)[C@@H]14` has an IC50 of 27.6 µM. In the case of `CCOC(=O)[C@]1(C)CCC[C@@]2(C)[C@@H]3CC[C@@]4(C)C[C@]3(CC[C@@H]21)c1cn(C(=S)Nc2ccccc2)nc14`, the IC50 is reported as 18.9 µM. `CCOC(=O)[C@]1(C)CCC[C@@]2(C)[C@@H]3CC[C@@]4(C)C[C@]3(CC[C@@H]21)c1cn(C(=S)Nc2ccc(Br)cc2)nc14` gave an IC50 of 13.9 µM. For `CCOC(=O)[C@]1(C)CCC[C@@]2(C)[C@@H]3CC[C@@]4(C)C[C@]3(CC[C@@H]21)[C@@H]1CON(C(=S)Nc2ccc(Cl)cc2)[C@@H]14`, the IC50 was > 50 µM. `CCOC(=O)[C@]1(C)CCC[C@@]2(C)[C@@H]3CC[C@@]4(C)C[C@]3(CC[C@@H]21)[C@@H]1CON(C(=S)Nc2ccccc2Br)[C@@H]14` was tested, and the IC50 was > 50 µM. Work on `CCOC(=O)[C@]1(C)CCC[C@@]2(C)[C@@H]3CC[C@@]4(C)C[C@]3(CC[C@@H]21)c1cn(C(=S)Nc2ccccc2[N+](=O)[O-])nc14` yielded an IC50 of 19.6 µM. For `CCOC(=O)[C@]1(C)CCC[C@@]2(C)[C@@H]3CC[C@@]4(C)C[C@]3(CC[C@@H]21)[C@@H]1CON(C(=S)Nc2ccc(OC)cc2)[C@@H]14`, the IC50 was 37.4 µM. `CCOC(=O)[C@]1(C)CCC[C@@]2(C)[C@@H]3CC[C@@]4(C)C[C@]3(CC[C@@H]21)c1cn(C(=S)Nc2ccc(Cl)cc2Cl)nc14` gave an IC50 of 24.5 µM. `CCOC(=O)[C@]1(C)CCC[C@@]2(C)[C@@H]3CC[C@@]4(C)C[C@]3(CC[C@@H]21)[C@@H]1CON(C(=S)Nc2cccc(Cl)c2)[C@@H]14` was tested, and the IC50 was > 50 µM. `CCOC(=O)[C@]1(C)CCC[C@@]2(C)[C@@H]3CC[C@@]4(C)C[C@]3(CC[C@@H]21)c1cn(C(=S)Nc2cccc(OC)c2)nc14` showed an IC50 of 15.1 µM. For `CCOC(=O)[C@]1(C)CCC[C@@]2(C)[C@@H]3CC[C@@]4(C)C[C@]3(CC[C@@H]21)c1cn(C(=S)Nc2c(C)cccc2C)nc14`, the IC50 was 12.1 µM. In the case of `CCOC(=O)[C@]1(C)CCC[C@@]2(C)[C@@H]3CC[C@@]4(C)C[C@]3(CC[C@@H]21)[C@@H]1CON(C(=S)Nc2ccc(Cl)cc2Cl)[C@@H]14`, the IC50 is reported as 21.9 µM. For `CCOC(=O)[C@]1(C)CCC[C@@]2(C)[C@@H]3CC[C@@]4(C)C[C@]3(CC[C@@H]21)c1cn(C(=S)Nc2cccc([N+](=O)[O-])c2)nc14`, the IC50 was 16.9 µM. `CCOC(=O)[C@]1(C)CCC[C@@]2(C)[C@@H]3CC[C@@]4(C)C[C@]3(CC[C@@H]21)[C@@H]1CON(C(=S)Nc2ccc(Br)cc2)[C@@H]14` was tested, and the IC50 was > 50 µM.

The molecules below were run on SGC-7901 (assay: Cytotoxicity against human SGC7901 cells after 48 hrs by MTT assay). Settings: SGC-7901, 48 h.
Format: functional, cell-based
`CCOC(=O)[C@]1(C)CCC[C@@]2(C)[C@@H]3CC[C@@]4(C)C[C@]3(CC[C@@H]21)[C@@H]1CON(C(=S)Nc2ccc(C)cc2)[C@@H]14` was tested, and the IC50 was 37.2 µM. `CCOC(=O)[C@]1(C)CCC[C@@]2(C)[C@@H]3CC[C@@]4(C)C[C@]3(CC[C@@H]21)c1cn(C(=S)Nc2ccccc2)nc14` was tested, and the IC50 was 15.7 µM. Molecule `CCOC(=O)[C@]1(C)CCC[C@@]2(C)[C@@H]3CC[C@@]4(C)C[C@]3(CC[C@@H]21)c1cn(C(=S)Nc2ccc(Br)cc2)nc14` has an IC50 of 7.06 µM. For `CCOC(=O)[C@]1(C)CCC[C@@]2(C)[C@@H]3CC[C@@]4(C)C[C@]3(CC[C@@H]21)[C@@H]1CON(C(=S)Nc2ccc(Cl)cc2)[C@@H]14`, the IC50 was > 50 µM. `CCOC(=O)[C@]1(C)CCC[C@@]2(C)[C@@H]3CC[C@@]4(C)C[C@]3(CC[C@@H]21)[C@@H]1CON(C(=S)Nc2ccccc2Br)[C@@H]14` was tested, and the IC50 was > 50 µM. For `CCOC(=O)[C@]1(C)CCC[C@@]2(C)[C@@H]3CC[C@@]4(C)C[C@]3(CC[C@@H]21)c1cn(C(=S)Nc2ccccc2[N+](=O)[O-])nc14`, the IC50 was 16.4 µM. `CCOC(=O)[C@]1(C)CCC[C@@]2(C)[C@@H]3CC[C@@]4(C)C[C@]3(CC[C@@H]21)[C@@H]1CON(C(=S)Nc2ccc(OC)cc2)[C@@H]14` was tested, and the IC50 was > 50 µM. With `CCOC(=O)[C@]1(C)CCC[C@@]2(C)[C@@H]3CC[C@@]4(C)C[C@]3(CC[C@@H]21)c1cn(C(=S)Nc2ccc(Cl)cc2Cl)nc14` the IC50 was 20.1 µM. For `CCOC(=O)[C@]1(C)CCC[C@@]2(C)[C@@H]3CC[C@@]4(C)C[C@]3(CC[C@@H]21)[C@@H]1CON(C(=S)Nc2cccc(Cl)c2)[C@@H]14`, the IC50 was > 50 µM. Molecule `CCOC(=O)[C@]1(C)CCC[C@@]2(C)[C@@H]3CC[C@@]4(C)C[C@]3(CC[C@@H]21)c1cn(C(=S)Nc2cccc(OC)c2)nc14` has an IC50 of 12.5 µM. In the case of `CCOC(=O)[C@]1(C)CCC[C@@]2(C)[C@@H]3CC[C@@]4(C)C[C@]3(CC[C@@H]21)c1cn(C(=S)Nc2c(C)cccc2C)nc14`, the IC50 is reported as 14.8 µM. Work on `CCOC(=O)[C@]1(C)CCC[C@@]2(C)[C@@H]3CC[C@@]4(C)C[C@]3(CC[C@@H]21)[C@@H]1CON(C(=S)Nc2ccc(Cl)cc2Cl)[C@@H]14` yielded an IC50 of 25.1 µM. `CCOC(=O)[C@]1(C)CCC[C@@]2(C)[C@@H]3CC[C@@]4(C)C[C@]3(CC[C@@H]21)c1cn(C(=S)Nc2cccc([N+](=O)[O-])c2)nc14` was tested, and the IC50 was 16 µM. For `CCOC(=O)[C@]1(C)CCC[C@@]2(C)[C@@H]3CC[C@@]4(C)C[C@]3(CC[C@@H]21)[C@@H]1CON(C(=S)Nc2ccc(Br)cc2)[C@@H]14`, the IC50 was > 50 µM.

What follows are molecules tested on A549 (assay: Cytotoxicity against human A549 cells after 48 hrs by MTT assay). Settings: A549, 48 h.
Format: functional, cell-based
Molecule `CCOC(=O)[C@]1(C)CCC[C@@]2(C)[C@@H]3CC[C@@]4(C)C[C@]3(CC[C@@H]21)[C@@H]1CON(C(=S)Nc2ccc(C)cc2)[C@@H]14` has an IC50 of 45.8 µM. In the case of `CCOC(=O)[C@]1(C)CCC[C@@]2(C)[C@@H]3CC[C@@]4(C)C[C@]3(CC[C@@H]21)c1cn(C(=S)Nc2ccccc2)nc14`, the IC50 is reported as 17.6 µM. Molecule `CCOC(=O)[C@]1(C)CCC[C@@]2(C)[C@@H]3CC[C@@]4(C)C[C@]3(CC[C@@H]21)c1cn(C(=S)Nc2ccc(Br)cc2)nc14` has an IC50 of 24.5 µM. In the case of `CCOC(=O)[C@]1(C)CCC[C@@]2(C)[C@@H]3CC[C@@]4(C)C[C@]3(CC[C@@H]21)[C@@H]1CON(C(=S)Nc2ccc(Cl)cc2)[C@@H]14`, the IC50 is reported as > 50 µM. In the case of `CCOC(=O)[C@]1(C)CCC[C@@]2(C)[C@@H]3CC[C@@]4(C)C[C@]3(CC[C@@H]21)[C@@H]1CON(C(=S)Nc2ccccc2Br)[C@@H]14`, the IC50 is reported as > 50 µM. `CCOC(=O)[C@]1(C)CCC[C@@]2(C)[C@@H]3CC[C@@]4(C)C[C@]3(CC[C@@H]21)c1cn(C(=S)Nc2ccccc2[N+](=O)[O-])nc14` showed an IC50 of 38.3 µM. `CCOC(=O)[C@]1(C)CCC[C@@]2(C)[C@@H]3CC[C@@]4(C)C[C@]3(CC[C@@H]21)[C@@H]1CON(C(=S)Nc2ccc(OC)cc2)[C@@H]14` was tested, and the IC50 was > 50 µM. With `CCOC(=O)[C@]1(C)CCC[C@@]2(C)[C@@H]3CC[C@@]4(C)C[C@]3(CC[C@@H]21)c1cn(C(=S)Nc2ccc(Cl)cc2Cl)nc14` the IC50 was > 50 µM. In the case of `CCOC(=O)[C@]1(C)CCC[C@@]2(C)[C@@H]3CC[C@@]4(C)C[C@]3(CC[C@@H]21)[C@@H]1CON(C(=S)Nc2cccc(Cl)c2)[C@@H]14`, the IC50 is reported as > 50 µM. In the case of `CCOC(=O)[C@]1(C)CCC[C@@]2(C)[C@@H]3CC[C@@]4(C)C[C@]3(CC[C@@H]21)c1cn(C(=S)Nc2cccc(OC)c2)nc14`, the IC50 is reported as 23.3 µM. With `CCOC(=O)[C@]1(C)CCC[C@@]2(C)[C@@H]3CC[C@@]4(C)C[C@]3(CC[C@@H]21)c1cn(C(=S)Nc2c(C)cccc2C)nc14` the IC50 was > 50 µM. For `CCOC(=O)[C@]1(C)CCC[C@@]2(C)[C@@H]3CC[C@@]4(C)C[C@]3(CC[C@@H]21)[C@@H]1CON(C(=S)Nc2ccc(Cl)cc2Cl)[C@@H]14`, the IC50 was 43.2 µM. With `CCOC(=O)[C@]1(C)CCC[C@@]2(C)[C@@H]3CC[C@@]4(C)C[C@]3(CC[C@@H]21)c1cn(C(=S)Nc2cccc([N+](=O)[O-])c2)nc14` the IC50 was > 50 µM. In the case of `CCOC(=O)[C@]1(C)CCC[C@@]2(C)[C@@H]3CC[C@@]4(C)C[C@]3(CC[C@@H]21)[C@@H]1CON(C(=S)Nc2ccc(Br)cc2)[C@@H]14`, the IC50 is reported as > 50 µM.

The molecules below were run on HeLa (assay: Cytotoxicity against human HeLa cells after 48 hrs by MTT assay). Settings: not given.
Format: functional, cell-based
With `CCOC(=O)[C@]1(C)CCC[C@@]2(C)[C@@H]3CC[C@@]4(C)C[C@]3(CC[C@@H]21)[C@@H]1CON(C(=S)Nc2ccc(C)cc2)[C@@H]14` the IC50 was > 50 µM. Work on `CCOC(=O)[C@]1(C)CCC[C@@]2(C)[C@@H]3CC[C@@]4(C)C[C@]3(CC[C@@H]21)c1cn(C(=S)Nc2ccccc2)nc14` yielded an IC50 of 27.1 µM. For `CCOC(=O)[C@]1(C)CCC[C@@]2(C)[C@@H]3CC[C@@]4(C)C[C@]3(CC[C@@H]21)c1cn(C(=S)Nc2ccc(Br)cc2)nc14`, the IC50 was > 50 µM. In the case of `CCOC(=O)[C@]1(C)CCC[C@@]2(C)[C@@H]3CC[C@@]4(C)C[C@]3(CC[C@@H]21)[C@@H]1CON(C(=S)Nc2ccc(Cl)cc2)[C@@H]14`, the IC50 is reported as > 50 µM. `CCOC(=O)[C@]1(C)CCC[C@@]2(C)[C@@H]3CC[C@@]4(C)C[C@]3(CC[C@@H]21)[C@@H]1CON(C(=S)Nc2ccccc2Br)[C@@H]14` was tested, and the IC50 was > 50 µM. In the case of `CCOC(=O)[C@]1(C)CCC[C@@]2(C)[C@@H]3CC[C@@]4(C)C[C@]3(CC[C@@H]21)c1cn(C(=S)Nc2ccccc2[N+](=O)[O-])nc14`, the IC50 is reported as 36.9 µM. With `CCOC(=O)[C@]1(C)CCC[C@@]2(C)[C@@H]3CC[C@@]4(C)C[C@]3(CC[C@@H]21)[C@@H]1CON(C(=S)Nc2ccc(OC)cc2)[C@@H]14` the IC50 was > 50 µM. With `CCOC(=O)[C@]1(C)CCC[C@@]2(C)[C@@H]3CC[C@@]4(C)C[C@]3(CC[C@@H]21)c1cn(C(=S)Nc2ccc(Cl)cc2Cl)nc14` the IC50 was > 50 µM. `CCOC(=O)[C@]1(C)CCC[C@@]2(C)[C@@H]3CC[C@@]4(C)C[C@]3(CC[C@@H]21)[C@@H]1CON(C(=S)Nc2cccc(Cl)c2)[C@@H]14` was tested, and the IC50 was > 50 µM. `CCOC(=O)[C@]1(C)CCC[C@@]2(C)[C@@H]3CC[C@@]4(C)C[C@]3(CC[C@@H]21)c1cn(C(=S)Nc2cccc(OC)c2)nc14` was tested, and the IC50 was > 50 µM. Molecule `CCOC(=O)[C@]1(C)CCC[C@@]2(C)[C@@H]3CC[C@@]4(C)C[C@]3(CC[C@@H]21)c1cn(C(=S)Nc2c(C)cccc2C)nc14` has an IC50 of 49 µM. For `CCOC(=O)[C@]1(C)CCC[C@@]2(C)[C@@H]3CC[C@@]4(C)C[C@]3(CC[C@@H]21)[C@@H]1CON(C(=S)Nc2ccc(Cl)cc2Cl)[C@@H]14`, the IC50 was > 50 µM. With `CCOC(=O)[C@]1(C)CCC[C@@]2(C)[C@@H]3CC[C@@]4(C)C[C@]3(CC[C@@H]21)c1cn(C(=S)Nc2cccc([N+](=O)[O-])c2)nc14` the IC50 was > 50 µM. In the case of `CCOC(=O)[C@]1(C)CCC[C@@]2(C)[C@@H]3CC[C@@]4(C)C[C@]3(CC[C@@H]21)[C@@H]1CON(C(=S)Nc2ccc(Br)cc2)[C@@H]14`, the IC50 is reported as > 50 µM.
